From ChEMBL document CHEMBL5528012, “Discovery of novel deoxyvasicinone derivatives with benzenesulfonamide substituents as multifunctional agents against Alzheimer's disease” (Eur J Med Chem, 2024)

Tests used:
Cholinesterase = Cholinesterase (Equus caballus, UniProt P81908); experiment: Inhibition of equine serum BuChE using S-butyrylthiocholine iodide as substrate pre-incubated for 30 mins followed by substrate addition and measured after 5 mins by DTNB reagent based Ellman's method
Acetylcholinesterase [1] = target: Acetylcholinesterase (Electrophorus electricus, UniProt O42275); experiment: Inhibition of electric eel AChE using acetylthiocholine iodide as substrate pre-incubated for 30 mins followed by substrate addition and measured after 5 mins by DTNB reagent based Ellman's method
in vitro = settings: PAMPA, pH 7.4
Description: Permeability of the compound at 30 to 50 uM at pH 7.4 by PAMPA-BBB assay

Acetylcholinesterase [2] = target: Acetylcholinesterase (Homo sapiens, UniProt P22303); experiment: Inhibition of AChE (unknown origin)
Chain of Acetylcholinesterase (Homo sapiens, UniProt P22303) (P22303 whole entry): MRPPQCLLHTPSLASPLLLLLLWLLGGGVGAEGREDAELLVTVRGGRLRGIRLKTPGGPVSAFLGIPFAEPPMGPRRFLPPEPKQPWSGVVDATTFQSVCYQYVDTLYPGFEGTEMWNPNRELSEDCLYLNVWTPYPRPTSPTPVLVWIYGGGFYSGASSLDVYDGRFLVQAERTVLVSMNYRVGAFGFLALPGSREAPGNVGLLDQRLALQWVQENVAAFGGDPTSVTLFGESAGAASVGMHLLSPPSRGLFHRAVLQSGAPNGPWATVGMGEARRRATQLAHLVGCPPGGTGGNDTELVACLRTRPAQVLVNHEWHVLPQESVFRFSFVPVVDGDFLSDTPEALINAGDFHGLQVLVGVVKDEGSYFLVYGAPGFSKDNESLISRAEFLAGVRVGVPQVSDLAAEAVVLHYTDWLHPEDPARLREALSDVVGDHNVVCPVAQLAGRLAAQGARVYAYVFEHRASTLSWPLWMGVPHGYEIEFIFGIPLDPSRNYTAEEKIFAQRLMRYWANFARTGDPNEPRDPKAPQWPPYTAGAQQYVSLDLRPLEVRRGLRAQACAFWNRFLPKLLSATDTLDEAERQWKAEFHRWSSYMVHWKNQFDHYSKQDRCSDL

Chain of Cholinesterase (P81908 whole entry): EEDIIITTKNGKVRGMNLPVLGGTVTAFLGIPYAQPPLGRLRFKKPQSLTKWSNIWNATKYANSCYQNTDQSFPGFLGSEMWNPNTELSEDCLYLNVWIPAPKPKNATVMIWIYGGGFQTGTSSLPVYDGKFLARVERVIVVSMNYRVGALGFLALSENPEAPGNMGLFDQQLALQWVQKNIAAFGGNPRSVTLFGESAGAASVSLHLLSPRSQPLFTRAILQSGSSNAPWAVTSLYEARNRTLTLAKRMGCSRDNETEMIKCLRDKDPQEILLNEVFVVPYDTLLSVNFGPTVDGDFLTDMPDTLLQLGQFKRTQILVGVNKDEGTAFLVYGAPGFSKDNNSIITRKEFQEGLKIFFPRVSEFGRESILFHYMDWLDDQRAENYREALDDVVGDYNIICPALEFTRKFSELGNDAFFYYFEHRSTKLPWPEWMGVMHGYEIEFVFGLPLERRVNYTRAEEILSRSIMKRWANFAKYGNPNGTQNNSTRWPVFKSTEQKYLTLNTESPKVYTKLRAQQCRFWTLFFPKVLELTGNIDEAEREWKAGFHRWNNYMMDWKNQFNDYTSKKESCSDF
Chain of Acetylcholinesterase (Electrophorus electricus, UniProt O42275) (O42275 whole entry): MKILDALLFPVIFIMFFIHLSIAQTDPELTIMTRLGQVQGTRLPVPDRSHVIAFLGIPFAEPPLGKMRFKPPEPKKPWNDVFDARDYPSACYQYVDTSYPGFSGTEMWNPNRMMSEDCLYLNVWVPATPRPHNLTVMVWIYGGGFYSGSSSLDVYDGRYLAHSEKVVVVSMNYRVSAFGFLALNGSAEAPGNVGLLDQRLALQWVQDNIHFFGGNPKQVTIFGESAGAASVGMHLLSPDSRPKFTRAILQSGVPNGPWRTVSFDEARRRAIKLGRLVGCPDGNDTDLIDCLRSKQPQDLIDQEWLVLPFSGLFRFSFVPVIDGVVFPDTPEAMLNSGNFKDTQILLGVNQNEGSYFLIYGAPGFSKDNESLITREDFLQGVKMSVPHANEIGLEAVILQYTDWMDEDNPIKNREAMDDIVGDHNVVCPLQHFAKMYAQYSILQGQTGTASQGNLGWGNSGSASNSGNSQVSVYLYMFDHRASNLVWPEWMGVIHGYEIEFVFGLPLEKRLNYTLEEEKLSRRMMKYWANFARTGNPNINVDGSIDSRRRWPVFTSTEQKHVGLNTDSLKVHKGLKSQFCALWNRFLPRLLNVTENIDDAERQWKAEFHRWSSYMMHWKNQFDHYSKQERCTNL

Row | Papp at 50 µM (in vitro) | Compound | IC50 (Cholinesterase) | IC50 (Acetylcholinesterase [1]) | IC50 (Acetylcholinesterase [2])
1 |  | O=C(CNS(=O)(=O)c1cccc(OC(F)(F)F)c1)Nc1ccc2c(=O)n3c(nc2c1)CCC3 | > 50 µM | > 50 µM | 
2 |  | O=C(CNS(=O)(=O)c1c(F)cccc1F)Nc1ccc2c(=O)n3c(nc2c1)CCC3 | > 50 µM | 5.12 µM | 
3 |  | O=C(CNS(=O)(=O)c1ccccc1Br)Nc1ccc2c(=O)n3c(nc2c1)CCC3 | > 50 µM | 4.17 µM | 
4 |  | O=C(CNS(=O)(=O)c1cccc(Cl)c1)Nc1ccc2c(=O)n3c(nc2c1)CCC3 | > 50 µM | 3.98 µM | 
5 |  | CCc1ccc(S(=O)(=O)NCC(=O)Nc2ccc3c(=O)n4c(nc3c2)CCC4)cc1 | > 50 µM | 31.7 µM | 
6 |  | O=C(CNS(=O)(=O)c1cc(Br)cc(C(F)(F)F)c1)Nc1ccc2c(=O)n3c(nc2c1)CCC3 | > 50 µM | > 50 µM | 
7 |  | O=C(CNS(=O)(=O)c1ccc(C(F)(F)F)cc1)Nc1ccc2c(=O)n3c(nc2c1)CCC3 | > 50 µM | 24.8 µM | 
8 |  | O=C(CNS(=O)(=O)c1ccccc1)Nc1ccc2c(=O)n3c(nc2c1)CCC3 | 48.5 µM | 5.39 µM | 
9 | 0.06 ×10⁻⁶ cm/s | CNC(=C[N+](=O)[O-])NCCSCc1ccc(CN(C)C)o1 [RANITIDINE] |  |  | 
10 |  | CC(C)c1cc(C(C)C)c(S(=O)(=O)NCC(=O)Nc2ccc3c(=O)n4c(nc3c2)CCC4)c(C(C)C)c1 | > 50 µM | > 50 µM | 
11 |  | O=C(CNS(=O)(=O)c1ccc(Cl)cc1)Nc1ccc2c(=O)n3c(nc2c1)CCC3 | > 50 µM | 48.3 µM | 
12 |  | CC(C)c1ccc(S(=O)(=O)NCC(=O)Nc2ccc3c(=O)n4c(nc3c2)CCC4)cc1 | > 50 µM | 12.5 µM | 
13 |  | COc1ccc(Br)cc1S(=O)(=O)NCC(=O)Nc1ccc2c(=O)n3c(nc2c1)CCC3 | > 50 µM | 5.22 µM | 
14 |  | O=C(CNS(=O)(=O)c1ccc(F)cc1)Nc1ccc2c(=O)n3c(nc2c1)CCC3 | > 50 µM | 5.68 µM | 
15 |  | O=C(CNS(=O)(=O)c1cc(Cl)c(F)cc1F)Nc1ccc2c(=O)n3c(nc2c1)CCC3 | > 50 µM | > 50 µM | 
16 |  | O=C(CCCCN1CCN(Cc2ccccc2)CC1)Nc1ccc2nc3n(c(=O)c2c1)CCC3 |  |  | 0.00329 µM
17 |  | O=C(CNS(=O)(=O)c1ccc(OC(F)(F)F)cc1)Nc1ccc2c(=O)n3c(nc2c1)CCC3 | > 50 µM | > 50 µM | 
18 |  | O=C(CNS(=O)(=O)c1c(Cl)cccc1Cl)Nc1ccc2c(=O)n3c(nc2c1)CCC3 | 47.7 µM | 4.06 µM | 
19 |  | O=C(CNS(=O)(=O)c1cc(Cl)cc(Cl)c1)Nc1ccc2c(=O)n3c(nc2c1)CCC3 | > 50 µM | > 50 µM | 
